Assay results as given in ChEMBL document CHEMBL1772964, “Structural requirements of flavonoids for the adipogenesis of 3T3-L1 cells” (Bioorg Med Chem, 2011).

Experiments:
3T3-L1 [1] = test: Effect on aP2 mRNA expression in mouse 3T3L1 cells at 10 uM on day 8 by RT-PCR relative to beta-actin mRNA expression; format: functional
3T3-L1 [2] = test: Induction of insulin-stimulated 2-deoxy-D- 2,6-[3H]-glucose uptake in differentiated mouse 3T3L1 cells at 30 uM compound treated for 20 mins with insulin by liquid scintillation counting (reference value: 100.0 %); format: functional
3T3-L1 [3] = test: Effect on aP2 mRNA expression in mouse 3T3L1 cells at 3 uM on day 8 by RT-PCR relative to beta-actin mRNA expression; format: functional
3T3-L1 [4] = test: Effect on C/EBPdelta mRNA expression in mouse 3T3L1 adipocytes at 30 uM on day 8 by RT-PCR relative to beta-actin mRNA expression; format: functional
3T3-L1 [5] = test: Effect on C/EBPdelta mRNA expression in mouse 3T3L1 cells at 3 uM on day 8 by RT-PCR relative to beta-actin mRNA expression; format: functional
3T3-L1 [6] = test: Induction of adiponectin protein secretion in mouse 3T3L1 cells at 30 uM on day 8 by ELISA relative to control; format: functional
3T3-L1 [7] = test: Induction of adiponectin protein secretion in mouse 3T3L1 cells at 3 uM on day 8 by ELISA relative to control; format: functional
3T3-L1 [8] = test: Induction of insulin-stimulated 2-deoxy-D- 2,6-[3H]-glucose uptake in differentiated mouse 3T3L1 cells at 10 uM compound treated for 20 mins with insulin by liquid scintillation counting (reference value: 100.0 %); format: functional
3T3-L1 [9] = test: Induction of insulin-stimulated 2-deoxy-D- 2,6-[3H]-glucose uptake in mouse 3T3L1 cells chronically treated at 1 uM by liquid scintillation counting (reference value: 100.0 %); format: functional
3T3-L1 [10] = test: Induction of adipogenesis in mouse 3T3L1 cells assessed as increase in triglyceride level at 10 uM on day 8 relative to control; format: functional
3T3-L1 [11] = test: Effect on C/EBPbeta mRNA expression in mouse 3T3L1 cells at 3 uM on day 8 by RT-PCR relative to beta-actin mRNA expression; format: functional
3T3-L1 [12] = test: Effect on PPARgamma2 mRNA expression in mouse 3T3L1 cells at 3 uM on day 8 by RT-PCR relative to beta-actin mRNA expression; format: functional
3T3-L1 [13] = test: Induction of adipogenesis in mouse 3T3L1 cells assessed as increase in triglyceride level at 30 uM on day 8 relative to control; format: functional
3T3-L1 [14] = test: Effect on PPARgamma2 mRNA expression in mouse 3T3L1 cells at 10 uM on day 8 by RT-PCR relative to beta-actin mRNA expression; format: functional
3T3-L1 [15] = test: Effect on adiponectin mRNA expression in mouse 3T3L1 cells at 30 uM on day 8 by RT-PCR relative to beta-actin mRNA expression; format: functional
3T3-L1 [16] = test: Effect on aP2 mRNA expression in mouse 3T3L1 cells at 30 uM on day 8 by RT-PCR relative to beta-actin mRNA expression; format: functional
3T3-L1 [17] = test: Effect on C/EBPbeta mRNA expression in mouse 3T3L1 cells at 30 uM on day 8 by RT-PCR relative to beta-actin mRNA expression; format: functional
3T3-L1 [18] = test: Induction of adipogenesis in mouse 3T3L1 cells assessed as increase in triglyceride level on day 8; format: functional, cell-based
3T3-L1 [19] = test: Induction of insulin-stimulated 2-deoxy-D- 2,6-[3H]-glucose uptake in mouse 3T3L1 cells chronically treated at 10 uM by liquid scintillation counting (reference value: 100.0 %); format: functional
3T3-L1 [20] = test: Effect on C/EBPdelta mRNA expression in mouse 3T3L1 cells at 10 uM on day 8 by RT-PCR relative to beta-actin mRNA expression; format: functional
3T3-L1 [21] = test: Effect on GlUT4 mRNA expression in mouse 3T3L1 cells at 30 uM on day 8 by RT-PCR relative to beta-actin mRNA expression; format: functional
3T3-L1 [22] = test: Induction of insulin-stimulated 2-deoxy-D- 2,6-[3H]-glucose uptake in mouse 3T3L1 cells chronically treated at 30 uM by liquid scintillation counting (reference value: 100.0 %); format: functional
3T3-L1 [23] = test: Effect on GlUT4 mRNA expression in mouse 3T3L1 cells at 3 uM on day 8 by RT-PCR relative to beta-actin mRNA expression; format: functional
3T3-L1 [24] = test: Effect on adiponectin mRNA expression in mouse 3T3L1 cells at 3 uM on day 8 by RT-PCR relative to beta-actin mRNA expression; format: functional
3T3-L1 [25] = test: Induction of adipogenesis in mouse 3T3L1 cells assessed as increase in triglyceride level at 3 uM on day 8 relative to control; format: functional
3T3-L1 [26] = test: Induction of adiponectin protein secretion in mouse 3T3L1 cells at 10 uM on day 8 by ELISA relative to control; format: functional
3T3-L1 [27] = test: Effect on GlUT4 mRNA expression in mouse 3T3L1 cells at 10 uM on day 8 by RT-PCR relative to beta-actin mRNA expression; format: functional
3T3-L1 [28] = test: Effect on C/EBPalpha mRNA expression in mouse 3T3L1 cells at 30 uM on day 8 by RT-PCR relative to beta-actin mRNA expression; format: functional
3T3-L1 [29] = test: Induction of adiponectin protein secretion in mouse 3T3L1 cells at 1 uM on day 8 by ELISA relative to control; format: functional
3T3-L1 [30] = test: Induction of adipogenesis in mouse 3T3L1 cells assessed as increase in triglyceride level at 1 uM on day 8 relative to control; format: functional
3T3-L1 [31] = test: Effect on C/EBPalpha mRNA expression in mouse 3T3L1 cells at 3 uM on day 8 by RT-PCR relative to beta-actin mRNA expression; format: functional
3T3-L1 [32] = test: Induction of adipogenesis in mouse 3T3L1 cells assessed as increase in triglyceride level at 0.3 uM on day 8 relative to control; format: functional
3T3-L1 [33] = test: Effect on adiponectin mRNA expression in mouse 3T3L1 cells at 10 uM on day 8 by RT-PCR relative to beta-actin mRNA expression; format: functional
3T3-L1 [34] = test: Effect on C/EBPbeta mRNA expression in mouse 3T3L1 cells at 10 uM on day 8 by RT-PCR relative to beta-actin mRNA expression; format: functional
3T3-L1 [35] = test: Effect on PPARgamma2 mRNA expression in mouse 3T3L1 cells at 30 uM on day 8 by RT-PCR relative to beta-actin mRNA expression; format: functional
3T3-L1 [36] = test: Effect on C/EBPalpha mRNA expression in mouse 3T3L1 cells at 10 uM on day 8 by RT-PCR relative to beta-actin mRNA expression; format: functional
3T3-L1 [37] = test: Inhibition of insulin-stimulated 2-deoxy-D- 2,6-[3H]-glucose uptake in differentiated mouse 3T3L1 cells compound treated for 20 mins with insulin by liquid scintillation counting (reference value: 100.0 %); format: functional, cell-based

COc1cc(OC)c2c(=O)c(OC)c(-c3ccc(OC)c(OC)c3)oc2c1 gave a Ratio (3T3-L1 [1]) of 1.59, an Activity (3T3-L1 [2]) of 35.9% and a Ratio (3T3-L1 [3]) of 1.34. For the same molecule, the Ratio (3T3-L1 [4]) was 2.34, the Ratio (3T3-L1 [5]) was 1.54 and the Activity (3T3-L1 [6]) was 128.1%. The Activity (3T3-L1 [7]) was 156.8%, the Activity (3T3-L1 [8]) was 65.5% and the Activity (3T3-L1 [9]) was 129.9%. It also gave an Activity (3T3-L1 [10]) of 27%, a Ratio (3T3-L1 [11]) of 1.73 and a Ratio (3T3-L1 [12]) of 1.84. For the same molecule, the Activity (3T3-L1 [13]) was 27.4%, the Ratio (3T3-L1 [14]) was 1.99 and the Ratio (3T3-L1 [15]) was 2.59. For the same molecule, the Ratio (3T3-L1 [16]) was 2.1, the Ratio (3T3-L1 [17]) was 3.82 and the Activity (3T3-L1 [18]) was “Dose-dependent effect”. It also gave an Activity (3T3-L1 [19]) of 152.9%, a Ratio (3T3-L1 [20]) of 1.93 and a Ratio (3T3-L1 [21]) of 3.62. For the same molecule, the Activity (3T3-L1 [22]) was 127.3%, the Ratio (3T3-L1 [23]) was 2.01 and the Ratio (3T3-L1 [24]) was 1.67. For the same molecule, the Activity (3T3-L1 [25]) was 26.2%, the Activity (3T3-L1 [26]) was 131.4% and the Ratio (3T3-L1 [27]) was 2.25. The Ratio (3T3-L1 [28]) was 1.38, the Activity (3T3-L1 [29]) was 137.8% and the Activity (3T3-L1 [30]) was 17.7%. It also gave a Ratio (3T3-L1 [31]) of 1.79, an Activity (3T3-L1 [32]) of 9.4% and a Ratio (3T3-L1 [33]) of 1.91. For the same molecule, the Ratio (3T3-L1 [34]) was 3.01, the Ratio (3T3-L1 [35]) was 2.42 and the Ratio (3T3-L1 [36]) was 1.5.
COc1ccc(-c2oc3cc(OC)cc(O)c3c(=O)c2OC)cc1 gave an Activity (3T3-L1 [2]) of 60.1%, an Activity (3T3-L1 [6]) of 131.9% and an Activity (3T3-L1 [7]) of 125.3%. It also gave an Activity (3T3-L1 [8]) of 69.8%, an Activity (3T3-L1 [9]) of 108.5% and an Activity (3T3-L1 [10]) of 22.5%. The Activity (3T3-L1 [13]) was 23%, the Activity (3T3-L1 [18]) was “Dose-dependent effect” and the Activity (3T3-L1 [19]) was 118.9%. It also gave an Activity (3T3-L1 [22]) of 113.6%, an Activity (3T3-L1 [25]) of 20.8% and an Activity (3T3-L1 [26]) of 123.3%. The Activity (3T3-L1 [29]) was 119.7%, the Activity (3T3-L1 [30]) was 21.7% and the Activity (3T3-L1 [32]) was 9.3%.
Molecule O=c1c(O)c(-c2ccc(O)cc2)oc2cc(O)cc(O)c12 [KAEMPFEROL] has an Activity (3T3-L1 [2]) of 12.7%, an Activity (3T3-L1 [8]) of 30.3% and an Activity (3T3-L1 [10]) of 0.3%. For the same molecule, the inhibition (3T3-L1 [37]) was “Dose-dependent effect”, the Activity (3T3-L1 [13]) was 3.7% and the Activity (3T3-L1 [25]) was 5.9%. It also gave an Activity (3T3-L1 [30]) of 6.2%.
Molecule COc1ccc(-c2oc3cc(OC)cc(OC)c3c(=O)c2OC)cc1 [TETRAMETHYLKAEMPFEROL] has a Ratio (3T3-L1 [1]) of 2.02, an Activity (3T3-L1 [2]) of 46% and a Ratio (3T3-L1 [3]) of 1.53. It also gave a Ratio (3T3-L1 [4]) of 0.77, a Ratio (3T3-L1 [5]) of 0.89 and an Activity (3T3-L1 [6]) of 136.7%. For the same molecule, the Activity (3T3-L1 [7]) was 149.5%, the Activity (3T3-L1 [8]) was 62.7% and the Activity (3T3-L1 [9]) was 146.5%. The Activity (3T3-L1 [10]) was 28.2%, the Ratio (3T3-L1 [11]) was 1.34 and the Ratio (3T3-L1 [12]) was 1.67. It also gave an Activity (3T3-L1 [13]) of 33.7%, a Ratio (3T3-L1 [14]) of 1.81 and a Ratio (3T3-L1 [15]) of 2.9. The Ratio (3T3-L1 [16]) was 2.24, the Ratio (3T3-L1 [17]) was 3.14 and the Activity (3T3-L1 [18]) was “Dose-dependent effect”. It also gave an Activity (3T3-L1 [19]) of 163.1%, a Ratio (3T3-L1 [20]) of 1.23 and a Ratio (3T3-L1 [21]) of 2.61. It also gave an Activity (3T3-L1 [22]) of 135.8%, a Ratio (3T3-L1 [23]) of 2.38 and a Ratio (3T3-L1 [24]) of 1.81. The Activity (3T3-L1 [25]) was 24.1%, the Activity (3T3-L1 [26]) was 164.7% and the Ratio (3T3-L1 [27]) was 2.54. The Ratio (3T3-L1 [28]) was 1.82, the Activity (3T3-L1 [29]) was 144.6% and the Activity (3T3-L1 [30]) was 19.1%. The Ratio (3T3-L1 [31]) was 1.88, the Activity (3T3-L1 [32]) was 10.1% and the Ratio (3T3-L1 [33]) was 2.05. It also gave a Ratio (3T3-L1 [34]) of 1.89, a Ratio (3T3-L1 [35]) of 2.11 and a Ratio (3T3-L1 [36]) of 2.08.
